Series [1] in a line: Isothermal microcalorimetry of solid state form conversion (Thermal Activity Monitor). As to conditions: for thermal activity (form conversion) on exposure to humidity: 80% RH (saturated KCl solution), over 30 hours; for time for conversion of hygroscopic to non-hygroscopic form: 80% RH. It counts as physicochemical. The method, then:
Isothermal microcalorimetry experiments on hygroscopic and non-hygroscopic crystalline forms of N-[N-[N-(4-piperdin-4-yl)butanoyl)-N-ethylglycyl]-(L)-aspartyl]-(L)-β-cyclohexylalanine amide are performed on a Thermometric® Thermal Activity Monitor (TAM). Solid state conversions of the different chrystalline forms are studied by exposing the forms to different humidities or solvent vapors at different temperatures. The saturated salt solutions used to obtain different humidities were: KCl (80% RH), NaCl (75% RH), and NaBr (65% RH). Approximately 100 mg quantities of the forms are weighed into a TAM glass ampule and a microhygrostate containing a saturated salt solution (with excess solid) or an organic solvent is placed inside the ampule. The ampule is sealed, equilibrated to the temperature of the experiment, and lowered into the measuring position in the TAM. An identical system containing washed sea sand, in place of the form subject to testing, is placed on the reference side. Output power (μW) is measured as a function of time (FIGS. 6-8).

Series [2] in a line: Moisture sorption isotherms (VTI MB300G moisture balance). It counts as physicochemical. The note with it: 25° C.; for desorption to original weight %: decreasing RH. The method, then: Moisture Sorption Isotherms of hygroscopic and non-hygroscopic crystalline forms of N-[N-[N-(4-piperdin-4-yl)butanoyl)-N-ethylglycyl]-(L)-aspartyl]-(L)-β-cyclohexylalanine amide are obtained on a VTI MB300G moisture balance. The experiments are conducted either by subjecting approximately 15 mg of the subject crystalline form to increasing and decreasing steps of % RH and following the weight gain (at each equilibrium step) as a function of % RH (FIG. 9) or by holding the subject crystalline form at constant humidity and following the weight gain as a function of time.

The subject of series [3] is ADP-induced platelet aggregation in platelet rich plasma. Briefly: Inhibition of ADP-Induced ex-vivo Platelet Aggregation after oral administration. It counts as in vivo, mongrel dogs. As to conditions: dog, 5 mg/kg; for % Inhibition of ex-vivo Platelet Aggregation After Oral Administration, 1 h: 1 h after dosing; for % Inhibition of ex-vivo Platelet Aggregation After Oral Administration, 3 h: 3 h after dosing. An excerpt:
(§1) The Platelet Aggregation Assay is based on that described in Blood 66 (4), 946-952 (1985). The Fibrinogen-Binding Assay is essentially that of Ruggeri, Z. M., et al., Proc. Nail. Acad. Sci. USA 83, 5708-5712 (1986) and Plow, E. F., et al., Proc. Natl. Acad Sci., USA 82, 8057-8061 (1985). The Inhibition of ADP-lndticed ex-vivo Platelet Aggregation assay is based on that of Zucker, “Platelet Aggregation Measured by the Photoelectric Method”, Methods in Enzymology 169, 117-133 (1989).
Control blood samples are obtained 5-10 minutes prior to administration of a test compound in mongrel dogs weighing from 10 to 20 Kg. The compound is administered intragasticly, via aqueous gavage, or orally, via gelatin capsule. Blood samples (5 ml) are then obtained at 30 minute intervals for 3 hours, and at 6, 12, and 24 hours after dosing. Each blood sample is obtained by venipuncture of the cephalic vein and is collected directly into a plastic syringe containing one part 3.8% trisodium citrate to nine parts blood.
The blood samples are centrifuged at 1000 rpm for 10 minutes to obtain platelet rich plasma (PRP). After removal of the PRP, the sample is centrifuged for an additional 10 minutes at 2000 rpm to obtain platelet poor plasma (PPP). Platelet count in the PRP is determined by using a Coulter Counter (Coulter Electronics, Hialeah, Fla.). If the concentration of platelets in the PRP is greater than 300,000 platelets/μL, then the PRP is diluted with PPP to adjust the platelet count to 300,000 platelets/μL. Aliquots of PRP (250 μL) are then placed in siliconized glass cuvettes (7.25×55 mm, Bio/Data Corp., Horsham, Pa.). Epinephrine (final concentration of 1 μM) is then added to the PRP, which is incubated for one minute at 37° C. A stimulator of platelet aggregation ADP at a final concentration of 10 μM, is then added to the PRP. Platelet aggregation is monitored spectrophotometrically utilizing a light transmission aggregometer (Bio/Data Platelet Aggregation Profiler, Model PAP-4, Bio/Data Corp., Horsham, Pa.). For the testing of a compound, the rate of change (slope) of light transmittance and the maximum light transmittance (maximum aggregation) is recorded in duplicate. Platelet aggregation data are reported as the percent decrease (mean±SEM) in slope or maximum aggregation as compared to data obtained from control PRP, which is prepared from blood samples obtained prior to administration of the test compound.

Series [4] deals with fixed activated platelets. Briefly: Platelet Aggregation Assay (fixed-activated platelets, aggregation initiated by human fibrinogen). In kind it is cell-based. The note with it: human fibrinogen 250 μg/mL, read-out: Inhibition of Fixed Platelet Aggregation (IC50 μM).
Text: as §1
Platelets are isolated from human platelet concentrates using the gel-filtration technique as described by Marguerie, G. A. et al., J. Biol. Chem. 254, 5357-5363 (1979) and Ruggeri, Z. M. et al., J. Clin. Invest. 72, 1-12 (1983). The platelets are suspended at a concentration of 2×10^8 cells/mL in a modified calcium-free Tyrode's buffer containing 127 mM sodium chloride, 2 mM magnesium chloride, 0.42 mM Na2HPO4, 11.9 mM NaHCO3, 2.9 mM KCl, 5.5 mM glucose, 10 mM HEPES, at a pH of 7.35 and 0.35% human serum albumin (HSA). […]
The fixed activated platelets are incubated with a selected dose of the compound to be tested for platelet aggregation inhibition for one minute andfaggregation initiated by addition of human fibrinogen to a final concentration of 250 μg/mL. […] The extent of inhibition of aggregation is expressed as the percentage of the rate of aggregation observed in the absence of inhibitor. […]

Series [5] can be described thus: Hygroscopicity and physical stability of the material prepared according to WO95/10295 (statement). It counts as physicochemical.

Like-named read-outs stand apart in the source and are kept apart here.

Regarding `CCN(CC(=O)N[C@@H](CC(=O)O)C(=O)N[C@@H](CC1CCCCC1)C(N)=O)C(=O)CCCC1CCNCC1` [non-hygroscopic form], the “thermal activity (form conversion) on exposure to humidity” value in series [1] (40° C.) was “no exothermic conversion event takes place”. In addition, the “desorption to original weight %” value in series [2] is given as “does desorb to its original weight %”.
In the case of `O=C(O)C[C@H](NC(=O)CNC(=O)CCCC1CCNCC1)C(=O)N[C@@H](Cc1c[nH]c2ccccc12)C(=O)O` [Compound of EPA ‘481, 4-4(piperidyl)butanoyl glycyl aspartyl tryptophan, reference compound], in series [3], the “% Inhibition of ex-vivo Platelet Aggregation After Oral Administration, 1 h” value is recorded as 53% and the “% Inhibition of ex-vivo Platelet Aggregation After Oral Administration, 3 h” value is given as less than 20%. Further, the IC50 in series [4] was 0.047 µM.
Consider `CCN(CC(=O)N[C@@H](CC(=O)O)C(=O)N[C@@H](CC1CCCCC1)C(N)=O)C(=O)CCCC1CCNCC1` [N-[N-[N-(4-(piperdin-4-yl)butanoyl)-N-ethylglycyl]-(L)-aspartyl]-(L)-β-cyclohexylalanine amide], for which the “hygroscopicity and physical stability” value in series [5] was “hygroscopic and is physically unstable as it absorbs moisture”.
Regarding `CCN(CC(=O)N[C@@H](CC(=O)O)C(=O)N[C@@H](CC1CCCCC1)C(N)=O)C(=O)CCCC1CCNCC1` [hygroscopic crystalline form], the “effect of relative humidity on rate of conversion to non-hygroscopic form” value in series [1] (60° C., 65% RH, 75% RH, 80% RH and 100% RH) is reported as “higher relative humidities produce a faster conversion”. Also, in series [1] (40° C., listed as hygroscopic form), the “thermal activity (form conversion) on exposure to humidity” value was “strong exothermic event takes place”. Also, the “time for conversion of hygroscopic to non-hygroscopic form” value in series [1] (40° C.) was “approximately 24 hours”; in series [1] (50° C.), approximately 6.5 h; in series [1] (60° C.), approximately 3 h. In series [1] (100% RH, 60° C.), the liquification during conversion result is “without the liquification”. The “thermal activity (form conversion) on exposure to methanol vapors” value in series [1] (methanol vapors, 40° C.) is recorded as “no exothermic conversion event takes place”. In series [2] (listed as hygroscopic form), the “desorption to original weight %” value is “does not desorb to its original weight %”. Also, the “% weight gain vs. % RH (water uptake)” value in series [2] (increasing RH, more pronounced above 60% RH) is given as “picks up more water than the non-hygroscopic form as the RH increases”.
Consider `CCN(CC(=O)N[C@@H](CC(=O)O)C(=O)N[C@@H](CC1CCCCC1)C(N)=O)C(=O)CCCC1CCNCC1` [Example 15], for which, in series [3], the “% Inhibition of ex-vivo Platelet Aggregation After Oral Administration, 1 h” value was found to be 100% and the “% Inhibition of ex-vivo Platelet Aggregation After Oral Administration, 3 h” value amounted to 100%. Moreover, the “% Inhibition of ex-vivo Platelet Aggregation After Oral Administration, 6 h” value in series [3] (6 h after dosing) is recorded as 100%. In series [3] (12 h after dosing), the “% Inhibition of ex-vivo Platelet Aggregation After Oral Administration, 12 h” value was found to be 98%. The “% Inhibition of ex-vivo Platelet Aggregation After Oral Administration, 24 h” value in series [3] (24 h after dosing) was found to be 50%. In addition, the half-inhibitory concentration (IC50) in series [4] (Platelet) stood at 0.097 µM.

Usually IC50 stands for the concentration that inhibits the measured activity by half.

The values are drawn from patent publication US6753409B1, “STABLE NON-HYGROSCOPIC CRYSTALLINE FORM OF N-[N-[N-(4-(PIPERIDIN-4-YL)BUTANOYL)-N-ETHYLGLYCYL]ASPARTYL]-L-β-CYCLOHEXYL ALANINE AMIDE, INTERMEDIATES THEREOF, AND PREPARATION THEREOF AND OF ANTITHROMBOTIC AZACYCLOALKYLALKANOYL PEPTIDES AND PSEUDOPEPTIDES” (Aventis Pharmaceuticals Inc., priority 1996, dated 2004).
